Assay results published in patent US6011000A, “Compositions for the treatment of blood disorders” (priority 1995, dated 2000).

Experiments:
[1] = test system: γ globin mRNA of bone marrow cells; conditions: cited from earlier work
[2] = test system: fetal reticulocyte production; conditions: cited from earlier work
globin expression = conditions: cited from earlier work
[3] = test system: erythroid cells (peripheral blood); assay: Erythroid cell viability by fluorescent staining (Calcein-AM), FIG. 2; type: cell-based, human; conditions: 0.5 mM, vs untreated controls
Description: FIG. 2 Peripheral blood cell viability after incubation with arginine butyrate, dihydrocinnamic acid, phenoxyacetic acid and butyric acid ethyl ester.
Compositions were tested for the ability to directly stimulate erythroid cell growth. Cell growth stimulation is a useful property for an agent to be used to treat anemias and distinguishes such agents from the cytotoxic drugs currently being tested for treatment of hemoglobinopathies. Cell viability analyses were performed using fluorescent staining to detect living cells. Cells were in log phase of growth in 6-well dishes when used in proliferation assays. For enumeration of living cells, wells were washed once with medium to remove nonadherent or dead cells. Remaining live cells were labeled with 2 μM 2',7'-bis-(carboxyethyl)-5-(and 6)-carboxy-fluorescein acetoxy-methyl ester (Calcein-AM) (Molecular Probes; Eugene, Oreg.) for 20 minutes at 37° C. and washed once. Fluorescence intensity of live cells was read on a CytoFluor 2300 Fluorescence Plate Scanner (Millipore; Bedford, Mass.) at excitation and emission wavelengths of 485 and 530 nm, respectively. The fluorescence intensity of a well was proportional to the number of living cells in the well. Background fluorescence was measured separately for each plate and subtracted from all readings. Each experiment was performed in triplicate or quadruplicate. The standard deviation (SD) of repetitive readings was less than 30% of the mean. Results are depicted in FIG. 2.

human erythroid cells = assay: DNA fragmentation by flow cytometry (degradation of DNA); type: cell-based
Description: Such activities might limit their utility for treatment of anemias such as occur in thalassemia, but alternatively would be useful for anticancer effects. To determine cell viability, human erythroid cells were cultured in the presence and absence of these compounds for 4 days and the amount of DNA fragmentation which occurred was measured.
Flow cytometric determination of DNA profiles and DNA fragmentation were determined. Cytometric analysis was performed with a FACScan (Becton Dickenson Instruments; Columbia, Md.). The data analysis and display were performed using the Cell-Fit software program. Approximately 0.5×10^6 cells were washed twice with PBS and resuspended in 1 ml of 1% sodium citrate, 0.1% Triton X-100 and 50 μg of propidium iodide/ml. Resulting permeabilized cells were kept in the dark at 4° C. overnight before DNA profile or DNA fragmentation analysis (Table 4).

[4] = Hemoglobin and red blood cell levels in a patient with thalassemia intermedia; type: in vivo, human; design: Hgb-A1 / Hgb-A2 / HbF: unit not given here; conditions: for RBC: 50 mg/kg 3 days/week
Description: This patient received isobutyramide at 50 mg/kg for 3 days/week over the course of the study.

MCF-7 cells = assay: Growth/viability of human mammary carcinoma cells; type: cell-based; conditions: MCF7, 96 h, 1.0 mM, 4 days, read-out: growth decrease of MCF-7 cells
Description: Human mammary carcinoma cells (MCF-7) were cultured alone (controls) and with arginine butyrate or isobutyramide for 4 days. Viability was assayed by FACS after incubation with a fluorescent dye taken up by viable cells (FIG. 6). Growth was decreased by 50% with isobutyramide at 1.0 mM, about 60% with arginine butyrate at 0.5 mM, and greater than 90% with arginine butyrate at 1.0 mM.

[5] = test system: system A transport (K562 cells and nucleated erythroblasts from fetal liver); assay: Effects on system A amino acid transport (3H-MAIB uptake); type: cell-based, human
Description: Inhibition of nutrient uptake is undesirable for treatment of anemias. Methyl aminoisobutyric acid (MAIB) labeled with tritium (^3 H) is normally taken up by system A amino acid transport. Cold (unlabeled) compounds were added to cultures containing ^3 H-MAIB and incubated for 1 hour. Cells were harvested and the amount of ^3 H taken up by cells was quantitated by scintillation counting.

[6] = test system: γ-globin promoter (-61 construct, K562 cells); type: cell-based, human
Excerpt: Functional assay underscores the important role of FRE-γ1 in γ-globin gene expression in K562 cells. To ascertain whether the FRE elements of the γ-globin promoter that were identified by in vivo footprinting were indeed involved in arginine butyrate inducibility for γ-globin gene expression, a series of 5' deletion constructs of the γ-globin promoter, extending from -256 to -61, were constructed and linked them to the NEO gene. Activity of the NEO gene of these constructs, in response to arginine butyrate treatment, was examined by transfecting these reporters into K562 cells. In K562 cells, a construct driven by 256 bp of promoter was able to direct NEO activity expression, resulting in colony formation. […] Deletion to position -61 reduced promoter activity to 33-40% of the activity seen with the -256 bp construct.

fetal globin production = conditions: cited from earlier work
Friend leukemia cells = conditions: cited from earlier work
fetal globin synthesis = conditions: cited from earlier work
[7] = test system: fetal globin expression in K562 human erythroleukemia cells; conditions: cited from earlier work
[8] = test system: fetal globin synthesis in tissue culture cells; conditions: cited from earlier work
[9] = test system: cultured human erythrocytes; conditions: cited from earlier work
[10] = 50 mg/kg, 3 days/week, four month study

For `Nc1ncn([C@@H]2O[C@H](CO)[C@@H](O)[C@H]2O)c(=O)n1` [AZA, 5-azacytidine], the “increase in γ globin mRNA of bone marrow cells” value ([1]; continuous intravenous) is listed as “five- to seven-fold increase” and the “population of stem cells in the bone marrow” value ([1]; in vivo) is listed as “significant alterations in the population of stem cells in the bone marrow”.

For `Nc1ccn([C@@H]2O[C@H](CO)[C@@H](O)[C@@H]2O)c(=O)n1` [AraC, cytosine arabinoside], the fetal reticulocyte production [2] is listed as “induces fetal reticulocyte production”.

For `NC(=O)NO` [Hydroxyurea], the “specificity to fetal globin” value (globin expression) is given as “did not appear to be very specific to fetal globin”.

With `CC(C)C(N)=O` [IBT, isobutyramide] the “erythroid cell growth and proliferation” value [3] was “either had no effect or stimulated erythroid cell growth and proliferation”, the “proportion of degraded DNA” value (human erythroid cells; 1.0 mM to 2.0 mM, untreated 26%) was 44% and the “Degraded DNA” value (human erythroid cells; 2.0 mM, 4 days, control 26%, 22%) was 34%. The “DNA fragmentation / cell viability / DNA integrity” value (human erythroid cells; DNA fragmentation assays) was “decrease cell viability”, the “rise in hematocrit (Hct)” value [4, 10] was 5.8% and the “rise in hemoglobin (Hgb)” value [4, 10] was 1.6 g/dL. For the same molecule, the “rise in reticulocytes (Retics)” value [4, 10] was “about 50%”, the “rise in total red blood cells (RBC)” value [4, 10] was ~10^6 /μl and the “total red blood cells (RBC) at end” value ([4]; 50 mg/kg, 3 days/week, four month study, from 6.48) was 7.3 10^6 cells/μl. The “hemoglobin (Hgb) at end” value ([4]; 50 mg/kg, 3 days/week, four month study, from 10.1) was 11.7 g/dL, the “hematocrit (Hct) at end” value ([4]; 50 mg/kg, 3 days/week, four month study, from 31.0%) was 36.9% and the HbF ([4]; Day 1) was 4.4. The Hct ([4]; Day 1) was 31.1%, the Hgb ([4]; Day 1) was 10.1 g/dL and the Hgb-A1 ([4]; Day 1) was 89.2. The Hgb-A2 ([4]; Day 1) was 6.4, the RBC ([4]; Day 1) was 6.48 10^6 cells/μl and the HbF ([4]; Day 8) was 6.4. The Hct ([4]; Day 8) was 36.2%, the Hgb ([4]; Day 8) was 10.8 g/dL and the Hgb-A1 ([4]; Day 8) was 89.2. For the same molecule, the Hgb-A2 ([4]; Day 8) was 6.2, the RBC ([4]; Day 8) was 6.76 10^6 cells/μl and the HbF ([4]; Day 15) was 4.4. It also gave a Hct ([4]; Day 15) of 37.0%, a Hgb ([4]; Day 15) of 11.1 g/dL and a Hgb-A1 ([4]; Day 15) of 89.2. For the same molecule, the Hgb-A2 ([4]; Day 15) was 6.4, the RBC ([4]; Day 15) was 6.89 10^6 cells/μl and the HbF ([4]; Day 22) was 0.4. It also gave a Hct ([4]; Day 22) of 34.1%, a Hgb ([4]; Day 22) of 10.3 g/dL and a Hgb-A1 ([4]; Day 22) of 89.1. For the same molecule, the Hgb-A2 ([4]; Day 22) was 6.9, the RBC ([4]; Day 22) was 6.28 10^6 cells/μl and the HbF ([4]; Day 29) was 4.4. The Hct ([4]; Day 29) was 36.3%, the Hgb ([4]; Day 29) was 10.9 g/dL and the Hgb-A1 ([4]; Day 29) was 88.6. The Hgb-A2 ([4]; Day 29) was 7.0, the RBC ([4]; Day 29) was 6.61 10^6 cells/μl and the HbF ([4]; Day 36) was 0.4. It also gave a Hct ([4]; Day 36) of 33.8%, a Hgb ([4]; Day 36) of 10.4 g/dL and a Hgb-A1 ([4]; Day 36) of 88.4. For the same molecule, the Hgb-A2 ([4]; Day 36) was 7.6, the RBC ([4]; Day 36) was 6.28 10^6 cells/μl and the HbF ([4]; Day 43) was 8.4. The Hct ([4]; Day 43) was 36.2%, the Hgb ([4]; Day 43) was 11.0 g/dL and the Hgb-A1 ([4]; Day 43) was 88.7. The Hgb-A2 ([4]; Day 43) was 6.5, the RBC ([4]; Day 43) was 6.38 10^6 cells/μl and the HbF ([4]; Day 55) was 5.4. The Hct ([4]; Day 55) was 34.0%, the Hgb ([4]; Day 55) was 11.4 g/dL and the RBC ([4]; Day 55) was 6.68 10^6 cells/μl. For the same molecule, the HbF ([4]; Day 68) was 1.4, the Hct ([4]; Day 68) was 36.4% and the Hgb ([4]; Day 68) was 11.5 g/dL. The RBC ([4]; Day 68) was 6.68 10^6 cells/μl, the Hct ([4]; Day 96) was 36.9% and the Hgb ([4]; Day 96) was 11.7 g/dL. For the same molecule, the RBC ([4]; Day 96) was 7.33 10^6 cells/μl, the “fetal globin (HbF)” value ([4]; four month study) was “lack of increased fetal globin (HbF)” and the Hemoglobin-A1 level ([4]; throughout the study) was “approximately constant”. For the same molecule, the hemoglobin-A2 level ([4]; throughout the study) was “approximately constant”, the inhibition at 1000 µM (MCF-7 cells) was 50% and the “system A (neutral) amino acid transport” value [5] was “inhibited the neutral amino acid transport mechanism”. For the same molecule, the “induction of construct activity” value [6] was 2.5-4 fold and the “stimulation of fetal globin production” value (fetal globin production) was “effective in stimulating fetal globin production”.

For `CC(=O)O` [acetate], the hemoglobin synthesis (Friend leukemia cells) is listed as “induced hemoglobin synthesis”, the “duration of positive effects” value (fetal globin synthesis) is listed as “positive effects could only be maintained for very short periods of time” and the “erythrocyte precursor populations and fetal globin synthesis” value (fetal globin synthesis) is listed as “increased both erythrocyte precursor populations and also fetal globin synthesis”.

In the case of `CCC(=O)O` [propionate], the hemoglobin synthesis (Friend leukemia cells) is listed as “induced hemoglobin synthesis” and the “increase of fetal globin expression” value [7] is listed as “most effective”.

In the case of “GM-CSF: granulocyte/macrophage-colony stimulating factor (GM-CSF)”, the fetal globin synthesis [8] is given as “increase fetal globin synthesis in tissue culture cells”.

B1: activin: Activin, sometimes referred to as erythroid differentiating factor (EDF) (protein, UniProt P08476 311-426, looked up)
Inhibin beta A chain: GLECDGKVNICCKKQFFVSFKDIGWNDWIIAPSGYHANYCEGECPSHIAGTSGSSLSFHSTVINHYRMRGHSPFANLKSCCVPTKLRPMSMLYYDDGQNIIKKDIQNMIVEECGCS
modifications: Inhibin beta A chain
In the case of B1, the hemoglobin accumulation [9] is given as “induced hemoglobin accumulation in cultured human erythrocytes”.

B2: inhibin: Inhibin, a disulfide linked hormone of two subunits (protein, UniProt P05111 233-366; P08476 311-426, looked up)
Inhibin alpha chain: STPLMSWPWSPSALRLLQRPPEEPAAHANCHRVALNISFQELGWERWIVYPPSFIFHYCHGGCGLHIPPNLSLPVPGAPPTPAQPYSLLPGAQPCCAALPGTMRPLHVRTTSDGGYSFKYETVPNLLTQHCACI
Inhibin beta A chain: B1 Inhibin beta A chain
In the case of B2, the hemoglobin accumulation [9] is given as “induced hemoglobin accumulation in cultured human erythrocytes”.
